This passage reports IC50, inhibition and Relative potency results from ChEMBL document CHEMBL1122959, “3-Hydroxy-3-methylglutaryl-coenzyme A reductase inhibitors. 1. Structural modification of 5-substituted 3,5-dihydroxypentanoic acids and their lactone derivatives” (J Med Chem, 1985).

SMILES strings stand for the structures.

The target in assay [1] is T1, 3-hydroxy-3-methylglutaryl-coenzyme A reductase (Rattus norvegicus, UniProt P51639).
T1 sequence (P51639 whole entry): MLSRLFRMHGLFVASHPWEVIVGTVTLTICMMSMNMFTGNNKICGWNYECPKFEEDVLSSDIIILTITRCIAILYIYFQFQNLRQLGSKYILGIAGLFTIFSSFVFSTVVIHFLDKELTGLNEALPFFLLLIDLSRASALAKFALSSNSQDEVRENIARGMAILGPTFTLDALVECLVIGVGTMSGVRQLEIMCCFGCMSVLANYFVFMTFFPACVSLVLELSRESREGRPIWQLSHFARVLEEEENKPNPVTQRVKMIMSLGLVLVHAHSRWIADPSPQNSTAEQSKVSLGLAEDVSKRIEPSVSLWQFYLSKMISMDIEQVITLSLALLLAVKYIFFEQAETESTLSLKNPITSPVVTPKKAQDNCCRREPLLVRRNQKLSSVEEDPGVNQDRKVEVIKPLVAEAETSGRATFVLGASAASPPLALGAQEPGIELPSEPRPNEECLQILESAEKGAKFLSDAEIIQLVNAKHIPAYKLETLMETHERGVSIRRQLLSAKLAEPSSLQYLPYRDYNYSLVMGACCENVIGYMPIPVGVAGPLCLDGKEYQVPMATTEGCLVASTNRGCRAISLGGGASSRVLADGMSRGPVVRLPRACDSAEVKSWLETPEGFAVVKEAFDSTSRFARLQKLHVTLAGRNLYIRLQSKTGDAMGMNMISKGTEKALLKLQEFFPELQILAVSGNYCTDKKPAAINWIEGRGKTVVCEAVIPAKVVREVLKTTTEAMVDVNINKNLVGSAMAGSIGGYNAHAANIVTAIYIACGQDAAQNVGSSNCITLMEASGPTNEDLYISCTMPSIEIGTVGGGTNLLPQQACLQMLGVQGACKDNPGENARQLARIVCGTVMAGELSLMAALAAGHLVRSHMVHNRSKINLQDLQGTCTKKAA
Kind of assay: In vitro inhibitory activity against HMG CoA reductase.

Assay [2] deals with T2, 3-hydroxy-3-methylglutaryl-coenzyme A reductase (Rattus norvegicus) (UniProt P51639).
T2 sequence (whole entry): T1 sequence (P51639 whole entry)
The assay can be described thus: Inhibition of partially purified rat liver HMG CoA reductase at 10 ug/ml concentration.

For assay [3], the target named is T2, 3-hydroxy-3-methylglutaryl-coenzyme A reductase (Rattus norvegicus). Kind of assay: Inhibitory activity against partially purified rat liver HMG CoA reductase at 20 ug/ml concentration.
Assay [4] shares this target. Kind of assay: Inhibitory activity against partially purified rat liver HMG CoA reductase at 5 ug/ml concentration.
Assay [5] has the same target. Kind of assay: Inhibitory activity against partially purified rat liver HMG CoA reductase at 50 ug/ml concentration.
Assay [6] has the same target. The assay can be described thus: Inhibitory activity against partially purified rat liver HMG CoA reductase at 2 ug/ml concentration.
The target is the same in assay [7]. The assay can be described thus: Inhibitory activity against partially purified rat liver HMG CoA reductase at 1 ug/mL concentration.
The target is the same in assay [8]. Kind of assay: Inhibitory activity against partially purified rat liver HMG CoA reductase at 12.5 ug/ml concentration.
Assay [9] shares this target. Kind of assay: Inhibitory activity against partially purified rat liver HMG CoA reductase at 1 ug/ml concentration.
The target is the same in assay [10]. The assay can be described thus: Inhibitory activity against partially purified rat liver HMG CoA reductase at 4 ug/mL concentration.
Assay [11] has the same target. The assay can be described thus: Inhibitory activity against partially purified rat liver HMG CoA reductase at 8 ug/ml concentration.
Assay [12] shares this target. The assay can be described thus: Inhibitory activity against partially purified rat liver HMG CoA reductase at 4 ug/ml concentration.
Assay [13] shares this target. The assay can be described thus: Relative potency against HMG CoA reductase.
Assay [14] shares this target. The assay can be described thus: Inhibitory activity against partially purified rat liver HMG CoA reductase at 0.8 ug/ml concentration.
Assay [15] shares this target. The assay can be described thus: Inhibitory activity against partially purified rat liver HMG CoA reductase at 0.1 ug/ml concentration.
The target is the same in assay [16]. Kind of assay: Inhibitory activity against partially purified rat liver HMG CoA reductase at 0.2 ug/ml concentration.
The target is the same in assay [17]. The settings on record: 1.4 ug/ml.
Description: Inhibitory activity against partially purified rat liver HMG CoA reductase at 1.4 ug/ml concentration
Assay [18] shares this target. Kind of assay: Inhibitory activity against partially purified rat liver HMG CoA reductase at 25 ug/ml concentration.
Assay [19] shares this target. Kind of assay: Inhibitory activity against partially purified rat liver HMG CoA reductase at 3.125 ug/ml concentration.
The target is the same in assay [20]. The assay can be described thus: Inhibitory activity against partially purified rat liver HMG CoA reductase at 0.625 ug/ml concentration.
The target is the same in assay [21]. Kind of assay: Inhibitory activity against partially purified rat liver HMG CoA reductase at 0.4 ug/ml concentration.

Regarding `O=C1C[C@H](O)C[C@@H](/C=C/c2ccc(Cl)cc2Cl)O1` (racemic) [listing 1 of 2 here], half-maximal inhibition in assay [1] (IC50) required 22 µM.

In the case of `O=C1C[C@H](O)CC(c2cccc3ccccc23)O1` (stereo partly drawn), the inhibition in assay [2] was 9%; in [3], 7%; in assay [4], 16%; in assay [5] it was 18%.

For `COC(/C=C/c1ccc(Cl)cc1Cl)CC(O)CC(=O)O` (stereo not drawn), the inhibition in assay [2], in assay [6], in [4] and in assay [7] was 0% throughout.

Turning to `O=C1C[C@H](O)CC(CCc2cccc3ccccc23)O1` (stereo partly drawn), the inhibition in assay [2] was 29%; in assay [3], 45%; in assay [4] it was 19%; in assay [5], 61%. In assay [1], this molecule came in with a half-maximal inhibitory concentration (IC50) of 129 µM.

Regarding `O=C1C[C@H](O)CC(CCC23CC4CC(CC(C4)C2)C3)O1` (stereo partly drawn), the inhibition in [8] worked out at 28%; in assay [4], 16%; in [9] it was 18%.

Regarding `NC(=O)C[C@H](O)C[C@H](O)/C=C/c1ccc(Cl)cc1Cl`, the inhibition in assay [6], in [10], in assay [11] and in assay [9] was 0% throughout.

For `O=C1C[C@H](O)C[C@@H](/C=C/c2ccc(Cl)cc2Cl)O1` (stereo in doubt; 6a(-)), the inhibition in assay [6], in assay [12], in assay [11] and in assay [9] was 0% throughout.

With `O=C1C[C@H](O)C[C@@H](/C=C/c2ccc(Cl)cc2Cl)O1` (stereo in doubt; 6a(+)) [listing 1 of 2 here], the IC50 in [1] is 10.8 µM.

Regarding `C[C@]1(O)CC(=O)O[C@H](CCc2ccc(Cl)cc2Cl)C1`, the inhibition in assay [6] was determined as 26%; in assay [12], 37%; in assay [11], 63%; in [9] it was 14%. Further, in assay [1], 19.8 µM corresponded to half-maximal inhibition (IC50). Moreover, the Relative potency in assay [13] is 0.08.

On to `O=C1C[C@H](O)C[C@@H](CCc2ccc(Cl)cc2Cl)O1`, for which the inhibition was 80% in assay [2], 38% in assay [6], 57% in assay [4] and 29% in assay [9]. Also, the IC50 in assay [1] is 15.2 µM.

Take `O=C1C[C@H](O)C[C@@H](CC[C@@H]2CCC[C@@H]3CCCC[C@@H]32)O1`: the inhibition is 22% in assay [2], 44% in [3], 15% in [4] and 70% in assay [5]. The IC50 in assay [1] was determined as 107 µM.

For the molecule `O=C1C[C@H](O)C[C@@H](C=C2c3ccccc3-c3ccccc32)O1`, the inhibition in [14] is 81%; in assay [15], 25%; in assay [16], 48%; in assay [17], 61%. This molecule also displayed an IC50 in assay [1] of 0.89 µM. In [13], this molecule showed a Relative potency of 1.5.

Consider `C[C@]1(O)CC(=O)O[C@H](/C=C/c2ccc(Cl)cc2Cl)C1`, for which the inhibition in [2] was 61%; in assay [6], 21%; in assay [12], 36%; in [9], 11%. Moreover, in assay [1], the IC50 was 20 µM. In assay [13], this molecule returned a Relative potency of 0.09.

Consider `O=C1C[C@H](O)CC(CC[C@@H]2CC[C@H]3CCCC[C@@H]3C2)O1` (stereo partly drawn), for which the inhibition in [8] is 28%; in assay [4], 13%; in assay [9] it was 1%. In assay [1], half-maximal inhibition (IC50) was put at 90 µM.

For the molecule `CO[C@@H]1C[C@H](O)C[C@@H](/C=C/c2ccc(Cl)cc2Cl)O1`, the inhibition in [2] was determined as 0%; in [6], 0%; in assay [12], 0%; in assay [11], 6%.

Turning to `C[C@@]1(O)CC(=O)O[C@H](/C=C/c2ccc(Cl)cc2Cl)C1`, the inhibition in [2] amounted to 5%; in assay [6] it was 3%; in [18], 15%; in assay [12], 7%.

For the molecule `O=C1C[C@H](O)C[C@@H](C#Cc2ccc(Cl)cc2Cl)O1`, the inhibition in [19] is 8%; in assay [20], 0%.

With `O=C1C[C@H](O)CC(CCC2CCCCC2)O1` (stereo partly drawn), the inhibition is 6% in [2], 17% in assay [3], 23% in assay [4] and 34% in assay [5].

On to `O=C1C[C@H](O)CC(CCCc2cccc3ccccc23)O1` (stereo partly drawn), for which the inhibition in [2] was determined as 25%; in assay [6], 11%; in assay [18] it was 35%; in [4], 7%.

As to `O=C1C[C@H](O)C[C@@H](/C=C/c2ccc(Cl)cc2Cl)O1` (racemic) [listing 2 of 2 here], the inhibition in assay [2] turned out to be 64%; in assay [3] it was 84%; in assay [4] it was 41%; in [9], 13%. In assay [13], this molecule gave a Relative potency of 0.08.

For `O=C1C[C@H](O)CC(c2ccc(Cl)cc2Cl)O1` (stereo partly drawn), the inhibition in assay [2] was 26%; in [3] it was 27%; in assay [4] it was 4%; in assay [5], 23%.

Consider `O=C1C[C@H](O)C[C@@H](C2CCCCC2)O1`, for which the inhibition in assay [2] was determined as 0%; in assay [3] it was 6%; in [4], 1%; in assay [5] it was 36%.

On to `CC1=CC(=O)OC(/C=C/c2ccc(Cl)cc2Cl)C1` (stereo not drawn), for which the inhibition in assay [2] was 3%; in assay [6], 0%; in assay [18] it was 5%; in assay [12], 3%.

Take `O=C1C[C@@H](O)C[C@@H](/C=C/c2ccc(Cl)cc2Cl)O1` (racemic): the inhibition is 27% in assay [2]; 4% in assay [6]; 17% in assay [3]; 6% in assay [4]; 18% in assay [5].

For the molecule `O=C1C[C@H](O)C[C@@H](COc2ccc(Cl)cc2Cl)O1`, the inhibition in assay [2] amounted to 21%; in assay [6], 24%; in assay [12], 18%; in assay [9] it was 21%.

With `O=C1C[C@@H](O)C[C@H](/C=C\c2ccc(Cl)cc2Cl)O1`, the inhibition in assay [19] and in [20] was 0% each time.

As for `O=C1C[C@H](O)C[C@@H](/C=C/c2ccc(Cl)cc2Cl)O1` (stereo in doubt; 6a(+)) [listing 2 of 2 here], the inhibition in assay [2] amounted to 72%; in assay [6] it was 45%; in [3] it was 86%; in assay [4] it was 66%; in assay [9], 26%. The same molecule returned a Relative potency in assay [13] of 0.16.

For the molecule `O=C1C[C@H](O)C[C@@H](/C=C/c2ccccc2)O1`, the inhibition in assay [2] came to 15%; in assay [3] it was 14%; in assay [4], 3%; in assay [5], 31%.

As for `O=C1C[C@H](O)CC(C=C(c2ccccc2)c2ccccc2)O1` (stereo partly drawn), the inhibition turned out to be 20% in assay [14], 22% in assay [15], 36% in assay [16] and 14% in [21].

With `O=C1C=C(O)OC(/C=C/c2ccc(Cl)cc2Cl)C1` (stereo not drawn), the inhibition in [2] stood at 12%; in assay [6], 0%; in assay [5], 15%.

Consider `O=C1C[C@H](O)C[C@@H](C=C2c3ccccc3C=Cc3ccccc32)O1`, for which, in assay [1], the IC50 stood at 1.6 µM. Besides, the Relative potency in assay [13] amounted to 0.9. Also, the inhibition in assay [15] was determined as 20%; in assay [16], 34%; in assay [21] it was 42%.

In assay [1], `CC[C@H](C)C(=O)O[C@H]1CCC=C2C=C[C@H](C)[C@H](CC[C@@H]3C[C@@H](O)CC(=O)O3)[C@H]21` [MEVASTATIN] showed an IC50 of 0.01 µM. Further, in assay [13], the Relative potency amounted to 100.
